# Results from article PMC5951611, “Structural studies and molecular dynamics simulations suggest a processive mechanism of exolytic lytic transglycosylase from Campylobacter jejuni” (PLoS ONE, 2018).
# Biological target: T1, soluble lytic transglycosylase Cj0843 (Campylobacter jejuni, UniProt Q0PA47)
# T1 construct: gene Cj0843c; Cj0843-pET28b expressed in E. coli (not glycosylated); native P3_121 model contains residues 19–76 and 81–532
# Experiment: crystal structure ([…] Å, soaked crystals) and DSF Kd; also partial inhibition in PG turbidity assay
# Type: binding
# T1 sequence (Q0PA47 entry or part of it): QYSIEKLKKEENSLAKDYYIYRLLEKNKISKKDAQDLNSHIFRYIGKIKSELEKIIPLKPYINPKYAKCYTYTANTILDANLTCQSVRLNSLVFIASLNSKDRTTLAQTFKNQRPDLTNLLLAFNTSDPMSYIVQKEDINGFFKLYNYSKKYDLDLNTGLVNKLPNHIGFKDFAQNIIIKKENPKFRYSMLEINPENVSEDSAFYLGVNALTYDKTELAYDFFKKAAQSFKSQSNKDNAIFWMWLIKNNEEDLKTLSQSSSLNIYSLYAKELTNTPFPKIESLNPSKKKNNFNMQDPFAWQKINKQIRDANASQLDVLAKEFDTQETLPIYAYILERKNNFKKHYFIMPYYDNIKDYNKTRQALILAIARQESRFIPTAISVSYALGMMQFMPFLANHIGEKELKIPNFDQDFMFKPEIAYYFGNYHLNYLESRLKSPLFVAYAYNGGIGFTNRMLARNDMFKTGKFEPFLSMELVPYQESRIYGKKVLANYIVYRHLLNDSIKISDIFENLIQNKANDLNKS
smiles,measurement,value
CC(=O)N[C@H]1[C@H](O[C@H]2C[C@@H](C(=O)NCCS(=O)(=O)O)N[C@@H]2CO)O[C@H](CO)[C@@H](OS(=O)(=O)O)[C@@H]1O [bulgecin A],Kd,210 µM
